Assay results taken from patent US20240059689A1, “PURINE DERIVATIVES AS ANTICANCER AGENTS” (Tango Therapeutics, Inc., priority 2021, published 2024).
Read-outs that look alike come from different tables or passages of the source.

Key:
USP1-UAF1 = USP1-UAF1 (Homo sapiens, UniProt O94782); assay: Ubiquitin Rhodamine assay of USP1-UAF1 activity; type: biochemical
Method: Certain compounds of the disclosure were assessed for USP1-UAF1 activity in a Ubiquitin Rhodamine assay as described in Biology Example 1.

MDA-MB-436 = assay: Viability assay, BRCA1 mutant cell line MDA-MB-436; type: cell-based; conditions: BRCA1 mutant MDA-MB-436, read-out: MDA-MB-436 rel IC50
Excerpt: (§1) Table 1 also indicates IC50 values in a viability assay for a non-isogenic pair of BRCA1 mutant (column 5-MDA-MB-436) and BRCA1 WT (column 6—HCC1954) cell lines. These values indicate the effect of treatment with compound on cell survival.

HCC1954 = assay: Viability assay, BRCA1 WT cell line HCC1954; type: cell-based; conditions: read-out: HCC1954 rel IC50
Excerpt: as §1

monoubiquitinated PCNA = assay: AlphaLISA assay measuring monoubiquitinated PCNA in MDA-MB-436; type: cell-based; conditions: read-out: Alpha Lisa IC50
Excerpt: Table 1 also indicates IC50 values for exemplary compounds in an AlphaLISA assay measuring monoubiquitinated PCNA in a BRCA1 mutant cell line (MDA-MB-436; column 7).

[1] = Homo sapiens, MDA-MB-436, monoubiquitinated PCNA
[2] = Homo sapiens, MDA-MB-436, viability
[3] = Homo sapiens, HCC1954, viability

Chain of USP1-UAF1 (O94782 whole entry): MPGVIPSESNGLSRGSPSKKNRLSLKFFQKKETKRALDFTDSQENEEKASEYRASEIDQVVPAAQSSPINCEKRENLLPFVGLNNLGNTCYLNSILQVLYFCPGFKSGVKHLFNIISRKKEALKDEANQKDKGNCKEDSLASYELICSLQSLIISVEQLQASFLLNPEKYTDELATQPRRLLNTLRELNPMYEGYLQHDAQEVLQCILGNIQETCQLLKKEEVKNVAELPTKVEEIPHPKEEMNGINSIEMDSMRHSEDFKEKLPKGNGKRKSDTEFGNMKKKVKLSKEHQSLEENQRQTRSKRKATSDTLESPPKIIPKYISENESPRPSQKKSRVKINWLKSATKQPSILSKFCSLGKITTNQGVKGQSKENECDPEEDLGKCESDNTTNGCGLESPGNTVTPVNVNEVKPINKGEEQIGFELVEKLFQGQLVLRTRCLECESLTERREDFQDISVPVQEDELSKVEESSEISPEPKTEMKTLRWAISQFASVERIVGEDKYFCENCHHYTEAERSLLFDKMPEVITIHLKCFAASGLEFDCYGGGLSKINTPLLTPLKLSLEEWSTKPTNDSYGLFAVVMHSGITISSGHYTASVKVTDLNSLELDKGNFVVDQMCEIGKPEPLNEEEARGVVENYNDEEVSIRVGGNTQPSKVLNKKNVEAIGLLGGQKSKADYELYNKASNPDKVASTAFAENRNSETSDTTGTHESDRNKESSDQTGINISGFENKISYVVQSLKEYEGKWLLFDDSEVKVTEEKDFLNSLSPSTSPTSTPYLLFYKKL
Chain of USP1-UAF1 (Q8TAF3 whole entry partner): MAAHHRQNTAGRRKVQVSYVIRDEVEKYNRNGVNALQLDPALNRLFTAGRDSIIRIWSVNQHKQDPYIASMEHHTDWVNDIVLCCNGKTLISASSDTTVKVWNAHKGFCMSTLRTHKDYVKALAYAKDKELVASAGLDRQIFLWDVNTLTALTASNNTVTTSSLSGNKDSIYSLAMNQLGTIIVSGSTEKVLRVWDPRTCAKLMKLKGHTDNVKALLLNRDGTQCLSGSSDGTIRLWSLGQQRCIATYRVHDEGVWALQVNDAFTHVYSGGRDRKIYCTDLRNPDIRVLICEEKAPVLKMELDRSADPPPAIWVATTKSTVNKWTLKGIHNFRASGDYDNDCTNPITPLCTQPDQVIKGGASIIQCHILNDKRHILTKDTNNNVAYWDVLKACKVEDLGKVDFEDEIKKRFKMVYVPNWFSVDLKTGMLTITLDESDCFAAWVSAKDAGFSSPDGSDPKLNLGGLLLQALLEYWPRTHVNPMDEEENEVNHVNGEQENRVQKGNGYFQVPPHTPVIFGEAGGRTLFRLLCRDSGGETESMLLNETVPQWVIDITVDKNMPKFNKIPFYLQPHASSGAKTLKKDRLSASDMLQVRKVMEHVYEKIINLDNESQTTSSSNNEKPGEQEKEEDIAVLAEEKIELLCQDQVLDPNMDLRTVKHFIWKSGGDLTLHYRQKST

IC50 (USP1-UAF1) [nM]	IC50 (MDA-MB-436; viability) [nM]	IC50 (HCC1954; viability) [nM]	IC50 (monoubiquitinated PCNA; [1]) [nM]	IC50 (monoubiquitinated PCNA; monoubiquitinated PCNA) [nM]	IC50 (MDA-MB-436; [2]) [nM]	IC50 (HCC1954; [3]) [nM]	SMILES
30 to 100	–	–	250 to 10000	–	250 to 10000	≥ 10000	Cc1nc(-c2ccccc2Cl)nc2c1n(C)c(=N)n2Cc1ccc(-c2nc(C(F)(F)F)cn2C)cc1 (single isomer, unassigned) [Example A-15a, 2-(2-chlorophenyl)-6,7-dimethyl-9-(4-(1-methyl-4-(trifluoromethyl)-1H-imidazol-2-yl)benzyl)-7,9-dihydro-8H-purin-8-imine]
< 30	–	–	< 100	–	100 to 250	250 to 10000	Cc1nc(-c2ccccc2-c2ccccc2Cl)nc2c1n(C)c(=N)n2Cc1ccc(-c2nc(C(F)(F)F)cn2C)cc1 (single isomer, unassigned) [Example A-15c, 2-(2′-chloro-[1,1′-biphenyl]-2-yl)-6,7-dimethyl-9-(4-(1-methyl-4-(trifluoromethyl)-1H-imidazol-2-yl)benzyl)-7,9-dihydro-8H-purin-8-imine]
< 30	–	–	250 to 10000	–	250 to 10000	250 to 10000	CC(C)c1ccccc1-c1nc(Cl)c2c(n1)n(Cc1ccc(-c3nc(C(F)(F)F)cn3C)cc1)c(=N)n2C (single isomer, unassigned) [Example A-22a, 6-chloro-2-(2-isopropylphenyl)-7-methyl-9-(4-(1-methyl-4-(trifluoromethyl)-1H-imidazol-2-yl)benzyl)-7,9-dihydro-8H-purin-8-imine]
30 to 100	–	–	250 to 10000	–	250 to 10000	250 to 10000	CC(C)c1ccccc1-c1nc(-c2ccccc2C(C)C)c2c(n1)n(Cc1ccc(-c3nc(C(F)(F)F)cn3C)cc1)c(=N)n2C (single isomer, unassigned) [Example A-22b, 2,6-bis(2-isopropylphenyl)-7-methyl-9-(4-(1-methyl-4-(trifluoromethyl)-1H-imidazol-2-yl)benzyl)-7,9-dihydro-8H-purin-8-imine]
100 to 10000	–	–	100 to 250	–	250 to 10000	≥ 10000	Cn1cc(C(F)(F)F)nc1-c1ccc(Cn2c(=N)n(C)c3cnc(-c4ccccc4[C@@H](O)C(F)(F)F)nc32)cc1 (single isomer, unassigned) [Example T-148, 2,2,2-trifluoro-[2-[8-imino-7-methyl-9-[[4-[I-methyl-4-(trifluoromethyl)imidazol-2-yl]phenyl]methyl]purin-2-yl]phenyl]ethanol]
< 30	–	–	< 100	–	< 100	250 to 10000	Cc1nc(-c2ccccc2C(C)C)nc2c1n(C)c(=N)n2Cc1ccc(-c2nc(C(F)(F)F)cn2C)cc1 [Example A-8, 2-(2-isopropylphenyl)-6,7-dimethyl-9-(4-(1-methyl-4-(trifluoromethyl)-1H-imidazol-2-yl)benzyl)-7,9-dihydro-8H-purin-8-imine]
100 to 10000	–	–	250 to 10000	–	250 to 10000	250 to 10000	CC(C)c1ccccc1-c1nc(C#N)c2c(n1)n(Cc1ccc(-c3nc(C(F)(F)F)cn3C)cc1)c(=N)n2C [Example A-13, 8-imino-2-(2-isopropylphenyl)-7-methyl-9-(4-(1-methyl-4-(trifluoromethyl)-1H-imidazol-2-yl)benzyl)-8,9-dihydro-7H-purine-6-carbonitrile]
< 30	–	–	< 100	–	< 100	250 to 10000	CCn1c(=N)n(Cc2ccc(-c3nc(C(F)(F)F)cn3C)cc2)c2nc(-c3ccccc3C(C)C)ncc21 [Example A-14, 7-ethyl-2-(2-isopropylphenyl)-9-(4-(1-methyl-4-(trifluoromethyl)-1H-imidazol-2-yl)benzyl)-7,9-dihydro-8H-purin-8-imine]
< 30	–	–	< 100	–	< 100	250 to 10000	C=C(C)c1ccccc1-c1nc(C)c2c(n1)n(Cc1ccc(-c3nc(C(F)(F)F)cn3C)cc1)c(=N)n2C [Example A-16, 6,7-dimethyl-9-(4-(1-methyl-4-(trifluoromethyl)-1H-imidazol-2-yl)benzyl)-2-(2-(prop-1-en-2-yl)phenyl)-7,9-dihydro-8H-purin-8-imine]
100 to 10000	–	–	250 to 10000	–	250 to 10000	250 to 10000	CC(C)c1ccccc1-c1nc(N(C)C)c2c(n1)n(Cc1ccc(-c3nc(C(F)(F)F)cn3C)cc1)c(=N)n2C [Example A-17, 8-imino-2-(2-isopropylphenyl)-N,N,7-trimethyl-9-(4-(1-methyl-4-(trifluoromethyl)-1H-imidazol-2-yl)benzyl)-8,9-dihydro-7H-purin-6-amine]
100 to 10000	–	–	≥ 10000	–	250 to 10000	250 to 10000	CNc1nc(-c2ccccc2C(C)C)nc2c1n(C)c(=N)n2Cc1ccc(-c2nc(C(F)(F)F)cn2C)cc1 [Example A-18, 8-imino-2-(2-isopropylphenyl)-N, 7-dimethyl-9-(4-(1-methyl-4-(trifluoromethyl)-1H-imidazol-2-yl)benzyl)-8,9-dihydro-7H-purin-6-amine]

Continued, compound first:

SMILES	IC50 (USP1-UAF1) [nM]	IC50 (MDA-MB-436; viability) [nM]	IC50 (HCC1954; viability) [nM]	IC50 (monoubiquitinated PCNA; [1]) [nM]	IC50 (monoubiquitinated PCNA; monoubiquitinated PCNA) [nM]	IC50 (MDA-MB-436; [2]) [nM]	IC50 (HCC1954; [3]) [nM]
CC(C)c1ccccc1-c1ncc2c(n1)n(C(C)c1ccc(-c3nc(Cl)cn3C)cc1)c(=N)n2C (single isomer, unassigned) [Example A-9c, 9-(1-(4-(4-chloro-1-methyl-1H-imidazol-2-yl)phenyl)ethyl)-2-(2-isopropylphenyl)-7-methyl-7,9-dihydro-8H-purin-8-imine]	30 to 100	250 to 10000	≥ 10000	100 to 250	–	–	–
CC(C)c1ccccc1-c1ncc2c(n1)n(C(C)c1ccc(-c3nc(Cl)cn3C)cc1)c(=N)n2C (single isomer, unassigned) [Example A-9d, 9-(1-(4-(4-chloro-1-methyl-1H-imidazol-2-yl)phenyl)ethyl)-2-(2-isopropylphenyl)-7-methyl-7,9-dihydro-8H-purin-8-imine]	< 30	< 100	250 to 10000	–	< 100	–	–
CC(C)c1ccccc1-c1ncc2c(n1)n(C(C)C1CCN(c3nc(Cl)cn3C)CC1)c(=N)n2C (single isomer, unassigned) [Example A-26c, 9-(1-(1-(4-chloro-1-methyl-1H-imidazol-2-yl)piperidin-4-yl)ethyl)-2-(2-isopropylphenyl)-7-methyl-7,9-dihydro-8H-purin-8-imine]	100 to 10000	–	250 to 10000	250 to 10000	–	250 to 10000	–
Cn1cc(C(F)(F)F)nc1-c1ccc(Cn2c(=N)n(C)c3cnc(-c4ccccc4[C@H](O)C(F)(F)F)nc32)cc1 (single isomer, unassigned) [Example T-129, 2,2,2-trifluoro-[2-[8-imino-7-methyl-9-[[4-[I-methyl-4-(trifluoromethyl)imidazol-2-yl]phenyl]methyl]purin-2-yl]phenyl]ethanol]	30 to 100	–	–	100 to 250	–	100 to 250	≥ 10000
CC(C)c1ccccc1-c1ncc2c(n1)n(Cc1ccc(-c3ncc(C(F)(F)F)n3C)cc1)c(=N)n2C [Example A-1, 2-(2-isopropylphenyl)-7-methyl-9-(4-(J-methyl-5-(trifluoromethyl)-1H-imidazol-2-yl)benzyl)-7H-purin-8(9H)-imine]	100 to 10000	–	–	250 to 10000	–	250 to 10000	250 to 10000
CC(C)c1ccccc1-c1ncc2c(n1)n(CC1CCN(c3nc(Cl)cn3C)CC1)c(=N)n2C [Example A-3, 9-((1-(4-chloro-1-methyl-1H-imidazol-2-yl)piperidin-4-yl)methyl)-2-(2-isopropylphenyl)-7-methyl-7H-purin-8(9H)-imine]	100 to 10000	–	–	250 to 10000	–	250 to 10000	≥ 10000
CC(C)c1ccccc1-c1ncc2c(n1)n(Cc1ccc(-c3nc(C(F)(F)F)c[nH]3)cc1)c(=N)n2C [Example A-5, 2-(2-isopropylphenyl)-7-methyl-9-(4-(4-(trifluoromethyl)-1H-imidazol-2-yl)benzyl)-7,9-dihydro-8H-purin-8-imine]	30 to 100	–	–	250 to 10000	–	250 to 10000	250 to 10000
CC(C)c1ccccc1-c1ncc2c(n1)n(Cc1ccc(-c3nc(Cl)cn3C)cc1)c(=N)n2C [Example A-6, 9-(4-(4-chloro-1-methyl-1H-imidazol-2-yl)benzyl)-2-(2-isopropylphenyl)-7-methyl-7,9-dihydro-8H-purin-8-imine]	< 30	–	–	< 100	–	< 100	≥ 10000
Cn1cc(Cl)nc1-c1ccc(Cn2c(=N)n(C)c3cnc(-c4ccccc4Cl)nc32)cc1 [Example A-11, 9-(4-(4-chloro-1-methyl-1H-imidazol-2-yl)benzyl)-2-(2-chlorophenyl)-7-methyl-7,9-dihydro-8H-purin-8-imine]	100 to 10000	–	–	250 to 10000	–	250 to 10000	≥ 10000
C=C(C)c1ccccc1-c1ncc2c(n1)n(Cc1ccc(-c3nc(Cl)cn3C)cc1)c(=N)n2C [Example A-12, 9-(4-(4-chloro-1-methyl-1H-imidazol-2-yl)benzyl)-7-methyl-2-(2-(prop-1-en-2-yl)phenyl)-7,9-dihydro-8H-purin-8-imine]	< 30	–	–	< 100	–	< 100	≥ 10000
CCOc1cc(C(F)(F)F)nn1-c1ccc(Cn2c(=N)n(C)c3cnc(-c4ccccc4C(F)(F)F)nc32)cn1 [Example T-091]	–	–	–	250 to 10000	–	250 to 10000	≥ 10000
